Consider one compound from patent publication US20110200693A1, “INCREASING THE EFFICIENCY OF UTILIZATION OF INGESTED CREATINE” (priority 2007, published 2011).

A short description of series [1]: Plasma creatine kinetics after a single ingestion of 2 g creatine (one-open compartmental model). The following applies: 2 g creatine oral, not influenced by the form ingested. In kind it is in vivo, human. On the procedure: The health status questionnaire was filled in again.
Venous blood was collected on heparin as an anticoagulant. The tubes were placed immediately on ice and centrifuged at 3000 g for 6 min at 4° C. […] NaOH 0.1M (90 μL) was added to supernatant (300 μL) to obtain a pH value of about 7.8. Samples were stored at −20° C.
Using a Marquardt algorithm, all kinetics were fitted with the following equation: […]
This equation corresponds to a one-open compartmental model in which ka, kel and tlag are the primary parameters. Knowing their value, new kinetic parameters of plasma creatine were calculated:
Since the bioavailability (F) may not be measured, only the apparent volume of distribution and the apparent clearance can be estimated:
Vd: the apparent volume of distribution (Vd=V/F, L)

The conditions of series [2]: doses from 8 g/d to 21 g/d during 1 to 14 days; cited from earlier work.

Each structure is given as a SMILES string.

`CN(CC(=O)O)C(=N)N` [creatine]: the “apparent volume of distribution relative to body mass” value in series [1] was “about 75 % of body mass”. For the same compound, the “fraction of ingested creatine excreted in urine” value in series [2] is given as 33 to 77 % of the original dose.
